Like-named read-outs stand apart in the source and are kept apart here.
How the values were obtained:
[1] = conventional magnesium salts; Firoz and Graber 2001; cited from earlier work
[2] = 1 gram calcium/day as the citrate, 1,471 healthy older women; cited from earlier work
[3] = doses of 1 g calcium citrate daily; cited from earlier work
[4] = 250-750 mg magnesium daily as magnesium hydroxide, 2 years; cited from earlier work
[5] = cited from earlier work
[6] = Availability of magnesium and lipoate ions from aqueous suspensions of the salt; type: physicochemical; conditions: aqueous solutions, pH about 4 to about 8
Source text: Thus, its bioavailability is unexpectedly high, as compared to conventional, water-insoluble magnesium salts. Further, R-(+)-alpha-lipoic acid is a widely distributed physiological antioxidant that combines free radical scavenging properties with an ability, after intracellular reduction to dihydrolipoic acid, to regenerate the levels of other nonenzymatic and enzymatic antioxidants, including glutathione (GSH), ascorbate, α-tocopherol, catalase and GSH peroxidase. The physiological form of R-(+)-α-lipoate, the R-(+)-enantiomer, is present in all eukaryotic and prokaryotic cells.

[7] = cited from earlier work; remark: listed apart in the source

## [O]=[Mg] [Magnesium oxide]
[1]
  Bioavailability (as fractional absorption of administered dose): 4%

## [Ca] [calcium]
[2]
  effect on bone density: beneficial effect on bone density

## O=C([O-])CC(O)(CC(=O)[O-])C(=O)[O-].O=C([O-])CC(O)(CC(=O)[O-])C(=O)[O-].[Ca+2].[Ca+2].[Ca+2] [calcium citrate]
[3]
  risk for myocardial infarction, stroke and death: increase risk

## Magnesium citrate
[1]
  Bioavailability (as fractional absorption of administered dose): 12%

## CC(O)C(=O)[O-].CC(O)C(=O)[O-].[Mg+2] (stereo not drawn) [Magnesium lactate]
[1]
  Bioavailability (as fractional absorption of administered dose): 12%

## [Mg+2].[OH-].[OH-] [Magnesium hydroxide]
[4]
  bone density: significant increase in bone density
  fractures: prevented fractures
[1]
  Bioavailability (as fractional absorption of administered dose): 4%

## vitamin D
[5]; 400 IU per day
  fracture benefit: failed to demonstrate any fracture benefit
[5]; 700 to 800 IU per day
  reduction of risk of any non-vertebral fracture: 23%
  reduction of risk of hip fracture: 26%

## Magnesium R-(+)-alpha-lipoate
[6]
  availability of magnesium and R-(+)-alpha-lipoate ions from suspensions: available

## [Cl-].[Cl-].[Mg+2] [Magnesium chloride]
[1]
  Bioavailability (as fractional absorption of administered dose): 12%

## O=C(O)CCCCC1CCSS1 (stereo not drawn) [R-(+)-alpha-lipoic acid]
[7]; closed and sealed amber container at refrigerated temperatures
  storage life: within a few months

## O=C(O)CCCCC1CCSS1 (stereo not drawn) [RS-Alpha-lipoic acid, RS-alpha-lipoic acid]
[7]; closed and sealed amber container at room temperature
  storage life: a year or more

From US8324191B2, “Combined calcium, magnesium and vitamin D supplements” (Biolink Life Sciences, Inc, priority 2008, dated 2012)
